{"source": "paper PMC7926471", "about": "(Viruses, 2021)", "key": {"[1]": {"tested_on": "HCoV-229E", "design": "method as in earlier work", "conditions": "Huh7 cells; cited from earlier work"}, "[2]": {"tested_on": "Vero E6 cells", "test": "Cytotoxicity in Vero E6 cells (WST-1 assay among others)", "assay_type": "cell-based"}, "[3]": {"tested_on": "HCoV-229E", "test": "Viral replication inhibition assay: HCoV-229E in MRC5 cells, PFU assay", "assay_type": "cell-based, Human Coronavirus 229E"}, "[4]": {"tested_on": "MRC5 cells", "test": "Cytotoxicity in MRC5 cells, MTT assay", "conditions": "drugs tested against HCoV-229E"}, "[5]": {"test": "Cytotoxicity in MRC5 cells, MTT assay", "conditions": "human"}, "[6]": {"tested_on": "MERS-CoV", "conditions": "in vitro; cited from earlier work"}, "[7]": {"test": "in vitro", "conditions": "human"}, "[8]": {"tested_on": "SARS-CoV-2", "conditions": "especially in primary human bronchial epithelium cells; cited from earlier work"}, "[9]": {"tested_on": "SARS-CoV-2", "test": "SARS-CoV-2 replication in Vero E6 cells, qRT-PCR of envelop (E) gene"}, "[10]": {"conditions": "single 500 mg oral dose; cited from earlier work"}, "[11]": {"conditions": "in vivo; cited from earlier work"}, "[12]": {"tested_on": "lung cancer", "conditions": "nasal administration; cited from earlier work"}, "[13]": {"tested_on": "SARS-CoV-2", "conditions": "cited from earlier work"}, "[14]": {"test": "Cytotoxicity in Vero E6 cells (WST-1 assay among others)", "assay_type": "cell-based", "conditions": "African green monkey; Vero E6 cells, 48 h"}, "[15]": {"tested_on": "SARS-CoV-2", "conditions": "SARS-CoV-2 infection; cited from earlier work"}, "[16]": {"tested_on": "HCoV-229E, SARS-CoV and MERS-CoV", "conditions": "cited from earlier work"}, "[17]": {"conditions": "Human coronavirus 229E, MRC5, 48 h, HCoV-229E in MRC5 cells, high titer MOI = 1, PFU assay after 48 h, read-out: EC50"}, "[18]": {"conditions": "SARS-CoV-2 in Vero E6 cells, qRT-PCR after 48 h"}}, "note": "“Also recorded” adds a separate entry of the source. Where two headings read alike, the source gives them in different places."}
{"smiles": "CCN(CC)CCCC(C)Nc1ccnc2cc(Cl)ccc12", "note": "(stereo not shown) [Chloroquine, chloroquine diphosphate]", "values": [{"measurement": "EC50", "setting": "[1]", "value": 3.3, "unit": "µM"}, {"measurement": "cytotoxicity on Vero E6 cells (in words)", "setting": "[2]; 48 h", "value": "toxic; also recorded: high cytotoxicity"}, {"measurement": "reduction of the viral titer", "setting": "[3]; HCoV-229E", "value": 60, "unit": "%"}, {"measurement": "EC50", "setting": "[3]; [17]", "value": 0.005, "unit": "mM"}, {"measurement": "HCoV-229E replication, low viral load (in words)", "setting": "[3]; MOI = 0.01, Figure 2", "value": "inhibits HCoV-229E replication"}, {"measurement": "effect of combinatory treatment on HCoV-229E (in words)", "setting": "[3]; combinations of lopinavir/ritonavir, chloroquine, resveratrol, MOI 0.01, Figure 2B", "value": "did not observe a synergistic effect"}, {"measurement": "effect when cells were treated before or after the infection (in words)", "setting": "[3]; pre-treated 3 h or post-treated 4 h, MOI 1, Figure 3", "value": "did not observe a significant difference"}]}
{"smiles": "CCN(CC)C(=S)SSC(=S)N(CC)CC", "note": "[Disulfiram, disulfiram]", "values": [{"measurement": "SI (selectivity index, CC50/EC50)", "setting": "[3]; HCoV-229E, MRC5 cells", "value": 60.56}, {"measurement": "EC50", "setting": "[3]; [17]", "value": 0.000139, "unit": "mM"}, {"measurement": "cytotoxicity (in words)", "setting": "[4]", "value": "highly cytotoxic"}, {"measurement": "CC50 at 48 h", "setting": "[5]; MRC5 cells", "value": 8.4, "unit": "µM"}]}
{"smiles": "CN(C)C(=O)C(CCN1CCC(O)(c2ccc(Cl)cc2)CC1)(c1ccccc1)c1ccccc1", "note": "[Loperamide, loperamide]", "values": [{"measurement": "cytotoxicity (in words)", "setting": "[4]", "value": "highly cytotoxic"}, {"measurement": "CC50 at 48 h", "setting": "[5]", "value": 10.1, "unit": "µM"}]}
{"smiles": "CO[C@H]1C[C@@H]2CC[C@@H](C)[C@@](O)(O2)C(=O)C(=O)N2CCCC[C@H]2C(=O)O[C@H]([C@H](C)C[C@@H]2CC[C@@H](O)[C@H](OC)C2)CC(=O)[C@H](C)/C=C(\\C)[C@@H](O)[C@@H](OC)C(=O)[C@H](C)C[C@H](C)/C=C/C=C/C=C/1C", "note": "[Rapamycin, rapamycin]", "values": [{"measurement": "reduction of MERS-CoV infection", "setting": "[6]", "value": "over 60%"}, {"measurement": "CC50 at 48 h", "setting": "[7]", "value": 2.5, "unit": "µM"}, {"measurement": "EC50", "setting": "[3]; Human coronavirus 229E, MRC5, 48 h", "value": 0.00228, "unit": "mM"}, {"measurement": "cytotoxicity (in words)", "setting": "[4]", "value": "highly cytotoxic"}]}
{"smiles": "Oc1ccc(/C=C/c2cc(O)cc(O)c2)cc1", "note": "[Resveratrol, resveratrol]", "values": [{"measurement": "replication of SARS-CoV-2 (in words)", "setting": "[8]", "value": "inhibited the replication"}, {"measurement": "inhibition of SARS-CoV-2 replication", "setting": "[9]; 25 µM, Vero E6 cells", "value": 3, "unit": "logs"}, {"measurement": "EC50", "setting": "[9]; [18]", "value": 10.7, "unit": "µM"}, {"measurement": "EC90", "setting": "[9]; [18]", "value": 11.4, "unit": "µM"}, {"measurement": "Tmax", "setting": "[10]", "value": 1.3, "unit": "h"}, {"measurement": "bioavailability (in words)", "setting": "[11]", "value": "poor bioavailability"}, {"measurement": "reduction of tumor multiplicity", "setting": "[12]", "value": 27, "unit": "%"}, {"measurement": "reduction of tumor volume", "setting": "[12]", "value": 45, "unit": "%"}, {"measurement": "EC50", "setting": "[13]", "value": 4.48, "unit": "µM"}, {"measurement": "non-cytotoxic doses", "setting": "[2]; in vitro, Vero E6", "value": "up to 25 µM"}, {"measurement": "CC50 at 48 h", "setting": "[14]", "value": 48.2, "unit": "µM"}, {"measurement": "reduction of the viral titer", "setting": "[3]; HCoV-229E", "value": 80, "unit": "%"}]}
{"smiles": "CCCC(CCC)C(=O)O", "note": "[VPA, valproic acid]", "values": [{"measurement": "EC50", "setting": "[3]; Human coronavirus 229E, MRC5, 48 h, HCoV-229E in MRC5 cells, PFU assay after 48 h, value in mM", "value": 1.34, "unit": "mM"}, {"measurement": "cytotoxicity (in words)", "setting": "[4]", "value": "highly cytotoxic"}, {"measurement": "CC50 at 48 h", "setting": "[5]; MRC5 cells", "value": 4000, "unit": "µM"}]}
{"smiles": "CCN(CCO)CCCC(C)Nc1ccnc2cc(Cl)ccc12", "note": "(stereo not shown) [hydroxychloroquine]", "values": [{"measurement": "EC90", "setting": "[15]", "value": 5.47, "unit": "µM"}]}
{"smiles": "Cc1cccc(C)c1OCC(=O)N[C@@H](Cc1ccccc1)[C@@H](O)C[C@H](Cc1ccccc1)NC(=O)[C@H](C(C)C)N1CCCNC1=O", "note": "[lopinavir]", "values": [{"measurement": "EC50", "setting": "[3]; HCoV-229E in MRC5 cells, high titer MOI = 1, PFU assay after 48 h, read-out: EC50", "value": 0.0088, "unit": "mM"}, {"measurement": "EC50", "setting": "[3]; Human coronavirus 229E, MRC5, 48 h, HCoV-229E in MRC5 cells, high titer MOI = 1, PFU assay after 48 h", "value": 0.00881, "unit": "mM"}]}
{"smiles": "COc1cc(/C=C/c2ccc(O)cc2)cc(OC)c1", "note": "[pterostilbene]", "values": [{"measurement": "replication of SARS-CoV-2 (in words)", "setting": "[8]", "value": "inhibited the replication"}]}
{"smiles": "CC(C)c1nc(CN(C)C(=O)N[C@H](C(=O)N[C@@H](Cc2ccccc2)C[C@H](O)[C@H](Cc2ccccc2)NC(=O)OCc2cncs2)C(C)C)cs1", "note": "[ritonavir]", "values": [{"measurement": "anti-CoV activity (in words)", "setting": "[16]", "value": "no selective anti-CoV activity"}]}
